# According to patent US8258175B2, “Isoindolin-1-one derivatives” (Cancer Research Technology Limited, priority 2004, dated 2012):
# Test system: not given
# Assay: not given
# Details: not given
row,SMILES,melting point [°C]
1,"CC(C)(C)c1ccc(COC2(c3ccccc3)c3ccccc3C(=O)N2Cc2ccccc2)cc1 (stereo not drawn) [NU8113, 2-Benzyl-3-(4-tert-butyl-benzyloxy)-3-phenyl-2,3-dihydro-isoindolin-1-one]",107 to 108
2,"CCCN1C(=O)c2ccccc2C1(OCc1ccc(C(C)(C)C)cc1)c1ccc(Cl)cc1 (stereo not drawn) [NU8221, 3-(4-tert-Butyl-benzyloxy)-3-(4-chlorophenyl)-2-propyl-2,3-dihydroisoindolin-1-one]",116.5 to 117.6
3,"CCCN1C(=O)c2ccccc2C1(OCCc1ccccn1)c1ccccc1 (stereo not drawn) [NU8224, 3-Phenyl-2-propyl-3-(2-pyridin-2-yl-ethoxy)-2,3-dihydroisoindolin-1-one]",122.3 to 124.1

# Target: T1, MDM2-p53 interaction (Homo sapiens, UniProt Q00987)
# T1 construct: made in house; host or cells: in vitro translation (cell-free)
# Assay: ELISA assay of MDM2-p53 complex formation (MDM2 binding to immobilised IP3 p53-derived peptide)
# Details: n=3 independent determinations; 5% DMSO; interpolated from three standard concentrations
# Protocol: Streptavidin-coated 96-well plates are used to immobilise a biotin-tagged IP3 p53-derived peptide ([…]). This is a peptide analogue derived from the p53 binding site for MDM2 ([…]). […] Aliquots of MDM2 generated by in vitro translation are pre-incubated for 20 minutes at room temperature (i.e. 20-25° C.) with test compounds and controls, before transfer into the IP3-coated 96-well plates. Following a further incubation period of 90 minutes at 4° C., the plates are washed to remove unbound MDM2 and the residual bound MDM2 is detected using a primary monoclonal antibody (MDM2 Ab-1, clone IF2, Oncogene Research Products) and HRP-conjugated secondary antibody (Goat anti-mouse, Dako PO447). The HRP (horseradish peroxidase) is measured by a chemiluminescence reaction using standard reagents (Amersham Pharmacia™ RPN 2106) and an automatic injection 96-well plate illuminometer (EG & G Berthold Microplate LB 96V).
# Compound NU8231 is currently included as a standard “lead compound” positive control. […] The AP peptide is included as a positive control for biological evaluation of the isoindolinones in the cell free binding assays.
# All compounds are dissolved in DMSO and tested at three standard concentrations (initially 20 μM, 100 μM and 500 μM) in the presence of a fixed final concentration of 5% DMSO. The percentage inhibition of complex formation is expressed relative to a DMSO only control and an IC50, defined as the concentration required for 50% inhibition of MDM2-p53 complex formation, determined by interpolation.
# T1 sequence (Q00987 whole entry): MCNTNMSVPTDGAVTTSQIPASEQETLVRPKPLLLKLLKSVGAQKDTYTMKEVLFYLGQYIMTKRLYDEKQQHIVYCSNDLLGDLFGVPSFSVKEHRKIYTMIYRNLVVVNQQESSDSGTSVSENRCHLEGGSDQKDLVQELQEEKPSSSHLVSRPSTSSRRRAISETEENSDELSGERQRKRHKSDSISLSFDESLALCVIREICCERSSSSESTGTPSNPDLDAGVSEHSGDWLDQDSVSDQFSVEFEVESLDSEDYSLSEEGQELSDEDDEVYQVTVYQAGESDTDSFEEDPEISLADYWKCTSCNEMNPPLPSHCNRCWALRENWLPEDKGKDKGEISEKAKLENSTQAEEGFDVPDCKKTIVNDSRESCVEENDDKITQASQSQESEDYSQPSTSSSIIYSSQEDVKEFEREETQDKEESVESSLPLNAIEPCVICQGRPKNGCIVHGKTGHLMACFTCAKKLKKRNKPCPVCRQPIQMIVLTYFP
row,SMILES,IC50 [nM]
1,"CCCN1C(=O)c2ccccc2C1(OCCCO)c1ccccc1 (stereo not drawn) [NU8033, 3-(3-Hydroxy-propoxy)-3-phenyl-2-propyl-2,3-dihydro-1H-isoindolin-1-one]",> 500000
2,"O=C1c2ccccc2C(OCCCO)(c2ccccc2)N1Cc1ccccc1 (stereo not drawn) [NU8034, 2-Benzyl-3-(3-Hydroxy-propoxy)-3-phenyl-2,3-dihydro-1H-isoindolin-1-one]",245000 ± 11000
3,"CC(C)(C)c1ccc(COC2(c3ccccc3)c3ccccc3C(=O)N2Cc2ccccc2)cc1 (stereo not drawn) [NU8113, 2-Benzyl-3-(4-tert-butyl-benzyloxy)-3-phenyl-2,3-dihydro-isoindolin-1-one]",92000 ± 11000
4,"O=C1c2ccccc2C(OCCc2ccccn2)(c2ccccc2)N1Cc1ccccc1 (stereo not drawn) [NU8133, 2-Benzyl-3-phenyl-3-(2-pyridin-2-yl-ethoxy)-2,3-dihydro-isoindolin-1-one]",206000 ± 130000
5,"CC(C)COc1ccc(C2(NC(=O)c3ccccc3)c3ccccc3C(=O)N2CC2CCCCC2)cc1 (stereo not drawn) [NU8200, N-[2-Cyclohexylmethyl-1-(4-isobutoxyphenyl)-3-oxo-2,3-dihydro-1H-isoindolin-1-yl]benzamide]",123000 ± 30000
6,"CCOc1ccc(C2(NC(=O)c3ccccc3)c3ccccc3C(=O)N2CC2CCCCC2)cc1 (stereo not drawn) [NU8201, N-[2-Cyclohexylmethyl 1-(4-ethoxyphenyl)-3-oxo-2,3-dihydro-1H-isoindolin-1-yl]benzamide]",209000 ± 28000
7,"CSc1ccc(C2(NC(=O)c3ccccc3)c3ccccc3C(=O)N2CC2CCCCC2)cc1 (stereo not drawn) [NU8202, N-[2-Cyclohexylmethyl-1-(4-methylsulfanylphenyl)-3-oxo-2,3-dihydro-1H-isoindolin-1-yl]benzamide]",82000 ± 16000
8,"O=C1c2ccccc2C(OCCNc2ccccc2)(c2ccccc2)N1Cc1ccccc1 (stereo not drawn) [NU8204, 2-Benzyl-3-phenyl-3-(2-phenylaminoethoxy)-2,3-dihydroisoindolin-1-one]",116000 ± 20000
9,"COc1cc(COC2(c3ccccc3)c3ccccc3C(=O)N2Cc2ccccc2)cc(OC)c1O (stereo not drawn) [NU8205, 2-Benzyl-3-(4-hydroxy-3,5-dimethoxybenzyloxy)-3-phenyl-2,3-dihydro-isoindolin-1-one]",17900 ± 300
10,"CCCOC1(c2ccccc2)c2ccccc2C(=O)N1CCO (stereo not drawn) [NU8206, 2-(2-Hydroxyethyl)-3-phenyl-3-propoxy-2,3-dihydroisoindolin-1-one]",> 500000
11,"O=C1c2ccccc2C(OCCN2CCNCC2)(c2ccccc2)N1Cc1ccccc1 (stereo not drawn) [NU8211, 2-Benzyl-3-phenyl-3-(2-piperazin-1-ylethoxy)-2,3-dihydroisoindolin-1-one]",315000 ± 72000
12,"CC(=O)NCCN1C(=O)c2ccccc2C1(OCc1ccc(C(C)(C)C)cc1)c1ccccc1 (stereo not drawn) [NU8213, N-{2-[1-(4-t-Butyl-benzyloxy)-3-oxo-1-phenyl-1,3-dihydro-isoindolin-2-yl]-ethyl}-acetamide]",14400 ± 300
13,"CC(C)(C)c1ccc(COC2(c3ccccc3)c3ccccc3C(=O)N2CCc2cnc[nH]2)cc1 (stereo not drawn) [NU8214, 3-(4-t-Butylbenzyloxy)-2-[2-(3H-imidazol-4-yl)-ethyl]-3-phenyl-2,3-dihydroisoindolin-1-one]",214000 ± 56000
14,"C=C(C)C(=O)OCCN1C(=O)c2ccccc2C1(NC(CO)C(O)c1ccccc1)c1ccccc1 (stereo not drawn) [NU8216, 2-Methylacrylic acid 2-[1-(2-hydroxy-1-hydroxymethyl-2-phenylethylamino)-3-oxo-1-phenyl-1,3-dihydroisoindolin-2-yl]ethyl ester]",103000 ± 43000
15,"CCCN1C(=O)c2ccccc2C1(OCc1ccc(C(C)(C)C)cc1)c1ccc(Cl)cc1 (stereo not drawn) [NU8221, 3-(4-tert-Butyl-benzyloxy)-3-(4-chlorophenyl)-2-propyl-2,3-dihydroisoindolin-1-one]",187000 ± 38000
16,"COc1ccc(COC2(c3ccccc3)c3ccccc3C(=O)N2Cc2ccccc2)cc1 (stereo not drawn) [NU8226, 2-Benzyl-3-(4-methoxybenzyloxy)-3-phenyl-2,3-dihydroisoindolin-1-one]",456000 ± 44000
17,"C=CCOc1c(OC)cc(COC2(c3ccc(Cl)cc3)c3ccccc3C(=O)N2CCC)cc1OC (stereo not drawn) [NU8232, 3-(4-Allyloxy-3,5-dimethoxybenzyloxy)-3-(4-chlorophenyl)-2-propyl-2,3-dihydroisoindolin-1-one]",264000 ± 38000
18,"CCCN1C(=O)c2ccccc2C1(OCc1ccc(C(C)(C)C)cc1)c1ccc(OCOCC[Si](C)(C)C)cc1 (stereo not drawn) [NU8233, 3-(4-tert-Butylbenzyloxy)-2-propyl-3-[4-(2-trimethylsilanylethoxymethoxy)-phenyl]-2,3-dihydroisoindolin-1-one]",464000 ± 31000

row,SMILES,IC50 [nM]
1,"CCCN1C(=O)c2ccccc2C1(OCCCO)c1ccc(OCOCC[Si](C)(C)C)cc1 (stereo not drawn) [NU8234, 3-(3-Hydroxypropoxy)-2-propyl-3-[4-(2-trimethylsilanylethoxymethoxy)-phenyl]-2,3-dihydroisoindolin-1-one]",476000 ± 24000
2,"CCCN1C(=O)c2ccccc2C1(OCCc1ccccn1)c1ccc(OCOCC[Si](C)(C)C)cc1 (stereo not drawn) [NU8235, 2-Propyl-3-(2-pyridin-2-yl-ethoxy)-3-[4-(2-trimethylsilanylethoxymethoxy)-phenyl]-2,3-dihydroisoindolin-1-one]",312000 ± 22000
3,"CCCN1C(=O)c2ccccc2C1(OCc1cc(OC)c(O)c(OC)c1)c1ccc(OCOCC[Si](C)(C)C)cc1 (stereo not drawn) [NU8236, 3-(4-Hydroxy-3,5-dimethoxybenzyloxy)-2-propyl-3-[4-(2-trimethylsilanylethoxy-methoxy)-phenyl]-2,3-dihydroisoindolin-1-one]",118000 ± 24000
4,"CCCN1C(=O)c2ccccc2C1(OCc1ccccc1)c1ccc(Cl)cc1 (stereo not drawn) [NU8237, 3-Benzyloxy-3-(4-chlorophenyl)-2-propyl-2,3-dihydroisoindolin-1-one]",409000 ± 43000
5,"COc1cc(COC2(c3ccc(OCOCC[Si](C)(C)C)cc3)c3ccccc3C(=O)N2Cc2ccccc2)cc(OC)c1O (stereo not drawn) [NU8238, 2-Benzyl-3-(4-hydroxy-3,5-dimethoxybenzyloxy)-3-[4-(2-trimethylsilanylethoxy-methoxy)phenyl]-2,3-dihydroisoindolin-1-one]",257000 ± 34000
6,"C[Si](C)(C)CCOCOc1ccc(C2(O)c3ccccc3C(=O)N2Cc2ccccc2)cc1 (stereo not drawn) [NU8239, 2-Benzyl-3-hydroxy-3-[4-(2-trimethylsilanylethoxymethoxy)phenyl]-2,3-dihydroisoindol-1-one]",366000 ± 61000
7,C=CCOc1ccc(COC2(c3ccc(Cl)cc3)c3ccccc3C(=O)N2CCC)cc1 (stereo not drawn) [NU8240],304000 ± 42000
8,"C=CCOc1cc(COC2(c3ccc(Cl)cc3)c3ccccc3C(=O)N2CCC)ccc1OC (stereo not drawn) [NU8241, 3-(4-chlorophenyl)-3-(3-allyloxy-4-methoxy-benzyloxy)-2-propyl-2,3-dihydroisoindolin-1-one]",83000 ± 5000
9,"C=CCOc1ccc(COC2(c3ccc(Cl)cc3)c3ccccc3C(=O)N2CCC)cc1OC (stereo not drawn) [NU8242, 3-(4-chlorophenyl)-3-(4-allyloxy-3-methoxy-benzyloxy)-2-propyl-2,3-dihydroisoindolin-1-one]",272000 ± 5000
10,CCCN1C(=O)c2ccccc2C1(OCc1ccc(O)cc1)c1ccc(Cl)cc1 (stereo not drawn) [NU8243],7700 ± 300
11,CCCN1C(=O)c2ccccc2C1(OCc1ccc(OC)c(O)c1)c1ccc(Cl)cc1 (stereo not drawn) [NU8244],9500 ± 1900
12,"C#CCN1C(=O)c2ccccc2C1(OCc1cc(OC)c(O)c(OC)c1)c1ccc(Cl)cc1 (stereo not drawn) [NU8245, 3-(4-Chlorophenyl)-3-(4-hydroxy-3,5-dimethoxybenzyloxy)-2-prop-2-ynyl-2,3-dihydroisoindolin-1-one]",23000 ± 4000
13,"CCCN1C(=O)c2ccccc2C1(OC1CCC(O)C1)c1ccc(Cl)cc1 (stereo not drawn) [NU8253, 3-(4-Chlorophenyl)-3-(3-hydroxycyclopentyloxy)-2-propylisoindolin-1-one]",3000 ± 700
14,"O=C1c2ccccc2C(OC2CCC(O)C2)(c2ccc(Cl)cc2)N1CCc1ccccc1 (stereo not drawn) [NU8257, 3-(4-Chlorophenyl)-3-(3-hydroxycyclopentyloxy)-2-phenethylisoindolin-1-one]",5500 ± 1700
15,"O=C1c2ccccc2C(O)(c2ccc(Cl)cc2)N1CC1CC1 (stereo not drawn) [NU8265, 3-(4-Chlorophenyl)-2-cyclopropylmethyl-3-hydroxy-2,3-dihydroisoindolin-1-one]",> 20000
16,"O=C1c2ccccc2C(OC2CCC(O)C2)(c2ccc(Cl)cc2)N1Cc1ccc(Cl)cc1 (stereo not drawn) [NU8274, 2-(4-Chlorobenzyl)-3-(4-chlorophenyl)-3-(3-hydroxycyclopentyloxy)isoindolin-1-one]",2400 ± 700
17,"O=C1c2ccccc2C(OC2CCC(O)C2)(c2ccc(Cl)cc2)N1CC1CC1 (stereo not drawn) [NU8280, 3-(4-Chlorophenyl)-2-cyclopropylmethyl-3-(3-hydroxycyclopentyloxy)-2,3-dihydro-isoindolin-1-one]",15400 ± 2300

# Same assay, conditions: nM
row,SMILES,IC50 [nM]
1,"O=C1c2ccccc2C(OC2CCC(O)C2)(c2ccc(Cl)cc2)N1Cc1ccc([N+](=O)[O-])cc1 (stereo not drawn) [NU8261, 3-(4-Chlorophenyl)-3-(3-hydroxycyclopentyloxy)-2-(4-nitrobenzyl)-2,3-dihydroisoindolin-1-one]",700
